Data reported in the supplement of paper PMC10307832.

Experiments:
Test in all cases: relative viability (nuclei count vs DMSO), 5 days (fraction); higher = more cells survive
Dabrafenib + Bortezomib = compound: CC(C)(C)c1nc(-c2cccc(NS(=O)(=O)c3c(F)cccc3F)c2F)c(-c2ccnc(N)n2)s1 [Dabrafenib] + CC(C)C[C@H](NC(=O)[C@H](Cc1ccccc1)NC(=O)c1cnccn1)B(O)O [Bortezomib] (partner 0.002 µM)
Method in brief: (§1)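 Lung cancer cell lines were seeded in 1536-well plates and dosed by pin tool the next day, with either a single drug or a fixed anchor-drug dose combined with five library-drug doses (not always all listed) spaced in √10 steps. Five days later, one step fixed the cells and stained their nuclei (final 0.05% Triton X-100, 1% formaldehyde, 1 ug/ml Hoechst), and nuclei were counted on 4× images. Relative viability is the nuclei count in treated wells divided by the count in vehicle wells, and each value is the median of duplicate plates.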

Dabrafenib + Dasatinib = compound: CC(C)(C)c1nc(-c2cccc(NS(=O)(=O)c3c(F)cccc3F)c2F)c(-c2ccnc(N)n2)s1 [Dabrafenib] + Cc1nc(Nc2ncc(C(=O)Nc3c(C)cccc3Cl)s2)cc(N2CCN(CCO)CC2)n1 [Dasatinib] (partner 0.075 µM)
Method in brief: as §1

VX-702 + Trametinib = compound: NC(=O)c1ccc(N(C(N)=O)c2c(F)cccc2F)nc1-c1ccc(F)cc1F [VX-702] + CC(=O)Nc1cccc(-n2c(=O)n(C3CC3)c(=O)c3c(Nc4ccc(I)cc4F)n(C)c(=O)c(C)c32)c1 [Trametinib] (partner 0.02 µM)
Method in brief: as §1

VX-702 + Foretinib = compound: NC(=O)c1ccc(N(C(N)=O)c2c(F)cccc2F)nc1-c1ccc(F)cc1F [VX-702] + COc1cc2c(Oc3ccc(NC(=O)C4(C(=O)Nc5ccc(F)cc5)CC4)cc3F)ccnc2cc1OCCCN1CCOCC1 [Foretinib] (partner 0.25 µM)
Method in brief: as §1

Cell Line | relative viability (Dabrafenib + Bortezomib; first compound 0.009487 µM) | relative viability (Dabrafenib + Bortezomib; first compound 0.09487 µM) | relative viability (Dabrafenib + Bortezomib; first compound 0.3 µM) | relative viability (Dabrafenib + Dasatinib; first compound 0.009487 µM) | relative viability (Dabrafenib + Dasatinib; first compound 0.03 µM) | relative viability (Dabrafenib + Dasatinib; first compound 0.09487 µM) | relative viability (Dabrafenib + Dasatinib; first compound 0.3 µM) | relative viability (VX-702 + Trametinib; first compound 0.02 µM) | relative viability (VX-702 + Trametinib; first compound 0.2 µM) | relative viability (VX-702 + Trametinib; first compound 0.6325 µM) | relative viability (VX-702 + Trametinib; first compound 2 µM) | relative viability (VX-702 + Foretinib; first compound 0.02 µM) | relative viability (VX-702 + Foretinib; first compound 0.2 µM) | relative viability (VX-702 + Foretinib; first compound 0.6325 µM) | relative viability (VX-702 + Foretinib; first compound 2 µM) | relative viability (Dabrafenib + Bortezomib; first compound 0.03 µM) | relative viability (Dabrafenib + Dasatinib; first compound 0.003 µM) | relative viability (Dabrafenib + Bortezomib; first compound 0.003 µM)
NCI-H322M | 1.26 | 1.3 | 1.34 | 0.229 | 0.233 | 0.279 | 0.236 | 0.543 | 0.499 | 0.518 | 0.613 | 0.964 | 0.875 | 0.932 | 1 | – | – | –
HCC-366 | 1.05 | 0.945 | 1.08 | 0.692 | 0.68 | 0.627 | 0.584 | 0.341 | 0.314 | 0.269 | 0.266 | 0.896 | 0.873 | 0.955 | 0.922 | 0.794 | 0.197 | –
NCI-H1355 | 1.22 | – | 1.29 | 0.692 | 0.749 | 0.651 | 0.703 | 0.464 | 0.38 | 0.368 | 0.416 | 0.931 | 1.01 | 0.923 | 1.01 | 1.12 | – | –
LC-2-ad | 1.03 | 0.918 | 1.09 | 0.802 | 0.518 | 0.512 | 0.677 | 0.948 | 0.916 | 0.921 | 0.97 | 0.765 | 0.958 | 0.838 | 0.99 | 0.969 | – | 1.04
NCI-H2087 | 0.752 | 0.648 | 0.761 | 0.894 | 0.798 | 0.519 | 0.657 | 0.201 | 0.181 | 0.186 | 0.228 | 1.18 | 0.915 | 1.12 | 1.23 | 0.564 | – | 0.814
BEN | 0.936 | 0.696 | 0.996 | 0.334 | – | 0.356 | 0.327 | 1.1 | 0.907 | 1.03 | 1.07 | 0.73 | 0.556 | 0.57 | 0.876 | – | – | –
NCI-H2228 | 0.829 | 0.912 | 1.03 | 0.482 | 0.635 | 0.506 | 0.506 | 0.485 | 0.518 | 0.551 | 0.602 | 0.889 | 0.851 | 1.07 | 0.887 | 0.859 | – | 0.897
HCC-827 | 1.03 | – | 0.996 | 0.384 | 0.287 | – | 0.382 | 0.55 | 0.501 | 0.515 | 0.425 | 1.07 | 0.988 | 1.07 | 0.787 | 1.06 | 0.44 | 0.778
IA-LM | 0.646 | 0.471 | 0.222 | – | – | – | – | – | – | – | – | 1.21 | 1.1 | 1.2 | 1.15 | 0.492 | – | 0.84
NCI-H522 | – | – | – | 0.862 | 0.671 | 0.83 | 0.899 | 0.736 | 0.759 | 0.708 | 0.74 | – | – | – | – | – | – | –
